{
  "source": "patent US20110077270A1",
  "about": "“Compositions and Methods for Treating Ocular Inflammation with Lower Risk of Increased Intraocular Pressure” (priority 2009, published 2011)",
  "key": {"[1]": {"test_system": "rabbit paracentesis model", "test": "Clinical evaluation (slit lamp clinical score), rabbit paracentesis model", "type": "in vivo", "set-up": "key to Clinical Score −180 min / Clinical Score −5 min / Clinical Score +115 min: 0: normal; 1: discrete dilatation of iris and conjunctival vessels; 2: moderate dilatation of iris and conjunctival vessels; 3: intense iridal hyperemia with flare in the anterior chamber; 4: intense iridal hyperemia with flare in the anterior chamber and presence of fibrinous exudates", "details": "for Clinical Score −5 min: 5 min before first paracentesis; for Clinical Score −5 min / Clinical Score +115 min / Clinical Score −180 min: individual eye; for Clinical Score +115 min: 5 min before second paracentesis; for Clinical Score −180 min: basal"}, "monkey TM cells": {"test_system": "monkey TM cells", "test": "Cell metabolic activity (resazurin reduction) assay in monkey TM cells", "type": "cell-based, rhesus monkeys (Macaca mulatta)", "details": "3 to 300 nM, end of treatment period; results not shown", "experimental": "A modification of previously described methods^40 was employed to evaluate cell metabolic activity, an index of cell viability. After collection of CM samples, cells were briefly rinsed in modified Hanks balanced salt solution containing Ca^++ and Mg^++ (“MHBSS”), and then 0.0025% (w/v) resazurin (Sigma) in MHBSS was added to sample wells. Plates were incubated (37° C., 5% CO2, 95% humidity) for 90 minutes, after which fluorescence (Excitation 560 nm, Emission 590 nm) was read (Victor 3V Multilabel Counter, Wallac, Turku, Finland). As a positive control for decreased cellular metabolic reduction of resazurin, in each plate an additional well of vehicle control-treated cells was preincubated with 0.06% hydrogen peroxide (Fisher, Atlanta, Ga.) in MHBSS."}, "[2]": {"test_system": "myocilin mRNA in monkey TM cells", "test": "Myocilin mRNA expression in monkey TM cells (qRT-PCR)", "type": "cell-based, rhesus monkeys (Macaca mulatta)", "details": "for EC50: expression of myocilin mRNA, weighted averages, two dose-response studies each using two monkey TM cell strains", "experimental": "For each study, up to nine TM cell strains, each derived from an individual monkey, were tested separately. Cells were thawed and seeded into 12- or 48-well clusters (Falcon, BD Biosciences; 150,000 and 30,000 cells/well, respectively) in proliferation medium. When cells were 75% to 90% confluent proliferation medium was replaced by a 5:4 mixture of HESFM and Dulbecco's MEM, respectively, supplemented with 10% FBS, with added taurine, ascorbic acid phosphate, glutathione, and antibiotic as for proliferation medium (above), and with 2.72 g/L glucose and 1.72 g/L fructose. At confluence, the medium was changed to Dulbecco's MEM, containing 10% FBS^40, ascorbic acid phosphate, antibiotic, 2.72 g/L glucose and 1.72 g/L fructose. Cells were maintained as stable, confluent monolayers in this latter medium for 4 to 7 days before experimental treatments commenced.\nAfter quantification of purified total RNA (Quant-iT RNA Assay kit, Molecular Probes, Eugene, Oreg.), equivalent amounts of this RNA were apportioned to generate first-strand cDNAs for each treatment sample, using random primers, (Affinity Script, Stratagene, La Jolla, Calif.). Oligonucleotide myocilin primers, designed based on the cynomolgus MYOC gene, and fluorescent Taqman probe (Applied Biosystems, Foster City, Calif.) were used for PCR amplification. Equal amounts of total RNA-equivalent mass (approximate range […]) reactant cDNA were added to the PCR Master Mix (Stratagene) and myocilin primers/Taqman probe. Amplification was performed in a thermocycler (Mx3005P, Stratagene), with an initial denaturation step at 95° C. for 10 min, followed by 40 cycles of 95° C. for 15 sec and 60° C. for 1 min for extension. Every run included standard controls (i.e., either without reverse transcriptase or lacking template). Relative quantities of myocilin mRNA abundance were determined using differences in threshold cycles (“Ct”) between vehicle control and drug treatments. Each sample was analyzed in triplicate wells, and the corresponding values averaged for further quantitative analysis. Myocilin mRNA abundance, expressed in proportion to vehicle control-treated samples, was calculated using the Mx3005P software.\nData underwent Box-Cox transformations for one- or two-way analysis of variance (ANOVA), followed by the Tukey-Kramer test, using JMP software (SAS, Cary, N.C.). The specific transformations used for analyses are mentioned in the figure legends. For each set of triplicate samples from the individual monkey TM cell strains tested, Western blot densitometry values for myocilin protein detected in CM (as geometric means), and relative abundance of myocilin mRNA (as geometric means), were plotted as a function of drug concentrations. P-values less than 0.05 were considered statistically significant. […]"}, "[3]": {"test_system": "MPO activity in iris-ciliary body", "test": "Myeloperoxidase (MPO) activity in iris-ciliary body, rabbit paracentesis model", "type": "in vivo", "details": "for MPO Unit/g: iris-ciliary body samples collected after the second paracentesis, individual eye samples; for MPO activity in iris-ciliary body, Mean: after second paracentesis, group mean", "experimental": "Each rabbit was placed in a restraint device and tagged with the alphanumeric code. The formulations were instilled (50 μl) into the conjunctival sac of both eyes 180, 120, 90 and 30 min before the first paracentesis; then 15, 30, 90 min after the first paracentesis. To perform the first paracentesis the animals were anaesthetized by intravenous injection of 5 mg/kg Zoletil® (Virbac; 2.5 mg/kg tiletamine HCl and 2.5 mg/kg zolazepam HCl) and one drop of local anesthetic (Novesina®, Novartis) was administered to the eye. Anterior chamber paracentesis was performed with a 26 G needle attached to a tuberculin syringe; the needle was introduced into the anterior chamber through the cornea, taking care not to damage the tissues. Two hours after the first paracentesis, the animals were sacrificed with 0.4 ml Tanax® (Intervet International B.V.) and the second paracentesis was performed. About 100 μl of aqueous humor were removed at the second paracentesis. Aqueous humor was immediately split in four aliquots and stored at −80° C. until analysis. Then both eyes were enucleated and the iris-ciliary body was carefully excised, placed in polypropylene tubes, and stored at −80° C. until analysis.\nThe activity of MPO was measured as previously described by Williams et al.[5] The iris-ciliary bodies were carefully dried, weighed and immersed in 1 ml of hexa-decyl-trimethyl-ammonium bromide solution. Then, the samples were sonicated for 10 sec on ice by a ultrasound homogenizer (HD 2070, Bandelin electronic), freeze-thawed three times, sonicated for 10 sec and centrifuged at 14,000 g for 10 min to remove cellular debris. An aliquot of the supernatant ([…] was diluted to 3 ml with the o-dianisidine 2HCl/H2O2 solution. The change in absorbance at 460 nm was continuously monitored for 5 min by a spectrophotometer (UV/Vis Spectrometer Lambda EZ 201; Perkin Elmer). The slope of the line (Δ/min) was determined for each sample and used to calculate the number of units of MPO in the tissue as follows:\nwere ε=11.3 mM^−1. Values were expressed as units of MPO/g of tissue."}, "[4]": {"details": "0.1% topical formulation, +115 min"}, "[5]": {"details": "0.1% topical formulation, −5 min"}, "[6]": {"details": "0.1% topical formulation, −180 min (basal)"}, "[7]": {"details": "0.5% topical formulation, +115 min"}},
  "note": "Values joined by “and” are separate entries in the source; they are usually repeats but may differ in a detail not shown here. Equal entries are not always repeated.",
  "data": [
    {"smiles": "Cc1ccc2c(NCC(O)(CC(C)(C)c3cc(F)cc4c3OCC4)C(F)(F)F)cccc2n1", "note": "(stereo not shown) [BOL-303242-X]", "values": [
      {"measurement": "Clinical Score −5 min", "setting": "[1]; 0.1% topical formulation", "result": 0},
      {"measurement": "Clinical Score +115 min", "setting": "[1]; 0.1% topical formulation, listed as BOL", "result": "2 (6×) and 3 (2×)"},
      {"measurement": "Percentage of eyes with clinical score 2", "setting": "[1]; [4]", "result": 75, "unit": "%"},
      {"measurement": "Percentage of eyes with clinical score 3", "setting": "[1]; [4]", "result": 25, "unit": "%"},
      {"measurement": "Clinical Score −180 min", "setting": "[1]; 0.1% topical formulation", "result": 0},
      {"measurement": "Percentage of eyes with clinical score 0", "setting": "[1]; [5]", "result": 100, "unit": "%"},
      {"measurement": "Percentage of eyes with clinical score 0", "setting": "[1]; [6]", "result": 100, "unit": "%"},
      {"measurement": "Clinical Score −5 min", "setting": "[1]; 0.5% topical formulation", "result": 0},
      {"measurement": "Clinical Score +115 min", "setting": "[1]; 0.5% topical formulation, listed as BOL", "result": "2 (5×) and 1 (3×)"},
      {"measurement": "Percentage of eyes with clinical score 1", "setting": "[1]; [7]", "result": 37.5, "unit": "%"},
      {"measurement": "Percentage of eyes with clinical score 2", "setting": "[1]; [7]", "result": 62.5, "unit": "%"},
      {"measurement": "Clinical Score −180 min", "setting": "[1]; 0.5% topical formulation", "result": 0},
      {"measurement": "Percentage of eyes with clinical score 0", "setting": "[1]; 0.5% topical formulation, −5 min", "result": 100, "unit": "%"},
      {"measurement": "Percentage of eyes with clinical score 0", "setting": "[1]; 0.5% topical formulation, −180 min (basal)", "result": 100, "unit": "%"},
      {"measurement": "Clinical Score −5 min", "setting": "[1]; 1% topical formulation", "result": 0},
      {"measurement": "Clinical Score +115 min", "setting": "[1]; 1% topical formulation", "result": 2},
      {"measurement": "Percentage of eyes with clinical score 2", "setting": "[1]; 1% topical formulation, +115 min", "result": 100, "unit": "%"},
      {"measurement": "Clinical Score −180 min", "setting": "[1]; 1% topical formulation", "result": 0},
      {"measurement": "Percentage of eyes with clinical score 0", "setting": "[1]; 1% topical formulation, −5 min", "result": 100, "unit": "%"},
      {"measurement": "Percentage of eyes with clinical score 0", "setting": "[1]; 1% topical formulation, −180 min (basal)", "result": 100, "unit": "%"},
      {"measurement": "Cell viability compared to vehicle controls (resazurin reduction)", "setting": "monkey TM cells", "result": "nor did any drug treatments result in a loss of cell viability"},
      {"measurement": "Myocilin mRNA abundance compared with DEX", "setting": "[2]; 3 to 300 nM", "result": "significantly lower mRNA abundance values at all doses compared with DEX"},
      {"measurement": "Emax at 0.3 µM", "setting": "[2]; Primates, read-out: Maximal efficacy for myocilin mRNA expression, relative to DEX, 300 nM, single monkey TM cell strain (FIG. 5)", "result": "~67", "unit": "%"},
      {"measurement": "EC50", "setting": "[2]; Primates", "result": "20.8 ± 2.74", "unit": "nM"},
      {"measurement": "MPO Unit/g", "setting": "[3]; 0.1% BOL, listed as BOL", "result": "1.04 Unit/g and 1.00 Unit/g and 1.14 Unit/g and 1.06 Unit/g and 1.22 Unit/g and 0.61 Unit/g and 1.05 Unit/g and 0.65 Unit/g"},
      {"measurement": "MPO activity in iris-ciliary body, Mean", "setting": "[3]; 0.1% topical formulation", "result": 0.971, "unit": "MPO Unit/g"},
      {"measurement": "Activity in rabbit paracentesis model (preliminary conclusion)", "setting": "[3]; 0.1%, 0.5%, 1% topical formulations, overall conclusion across biomarkers", "result": "active in this model"},
      {"measurement": "MPO Unit/g", "setting": "[3]; 0.5% BOL, listed as BOL", "result": "0.85 Unit/g and 0.93 Unit/g and 0.79 Unit/g and 1.03 Unit/g and 0.75 Unit/g and 0.74 Unit/g and 0.54 Unit/g and 0.58 Unit/g"},
      {"measurement": "MPO activity in iris-ciliary body, Mean", "setting": "[3]; 0.5% topical formulation", "result": 0.775, "unit": "MPO Unit/g"},
      {"measurement": "MPO Unit/g", "setting": "[3]; 1% BOL, listed as BOL", "result": "0.66 Unit/g and 0.68 Unit/g and 0.49 Unit/g and 0.40 Unit/g and 0.34 Unit/g and 1.02 Unit/g and 0.31 Unit/g and 0.43 Unit/g"},
      {"measurement": "MPO activity in iris-ciliary body, Mean", "setting": "[3]; 1% topical formulation", "result": 0.542, "unit": "MPO Unit/g"}
    ]},
    {"smiles": "C[C@@H]1C[C@H]2[C@@H]3CCC4=CC(=O)C=C[C@]4(C)[C@@]3(F)[C@@H](O)C[C@]2(C)[C@@]1(O)C(=O)CO", "note": "[Dex, dexamethasone, reference compound]", "values": [
      {"measurement": "Clinical Score −5 min", "setting": "[1]; 0.1% topical formulation", "result": "0 (6×) and 1 (2×)"},
      {"measurement": "Clinical Score +115 min", "setting": "[1]; 0.1% topical formulation", "result": "1 (6×) and 3 (2×)"},
      {"measurement": "Percentage of eyes with clinical score 1", "setting": "[1]; [4]", "result": 75, "unit": "%"},
      {"measurement": "Percentage of eyes with clinical score 3", "setting": "[1]; [4]", "result": 25, "unit": "%"},
      {"measurement": "Clinical Score −180 min", "setting": "[1]; 0.1% topical formulation", "result": 0},
      {"measurement": "Percentage of eyes with clinical score 0", "setting": "[1]; [5]", "result": 75, "unit": "%"},
      {"measurement": "Percentage of eyes with clinical score 1", "setting": "[1]; [5]", "result": 25, "unit": "%"},
      {"measurement": "Percentage of eyes with clinical score 0", "setting": "[1]; [6]", "result": 100, "unit": "%"},
      {"measurement": "Cell viability compared to vehicle controls (resazurin reduction)", "setting": "monkey TM cells", "result": "nor did any drug treatments result in a loss of cell viability"},
      {"measurement": "EC50", "setting": "[2]; Primates", "result": "14.7 ± 1.27", "unit": "nM"},
      {"measurement": "MPO Unit/g", "setting": "[3]; 0.1% Dex", "result": "0.71 Unit/g and 0.60 Unit/g and 1.32 Unit/g and 0.48 Unit/g (2×) and 0.39 Unit/g and 0.45 Unit/g and 0.51 Unit/g"},
      {"measurement": "MPO activity in iris-ciliary body, Mean", "setting": "[3]; 0.1% topical formulation", "result": 0.618, "unit": "MPO Unit/g"}
    ]}
  ]
}
